The NIST ThermoML archive (doi:10.1016/j.jct.2012.05.023)
± gives the expanded uncertainty stated by the source.

Legend:
[1] = 101.3 kPa, Liquid; for speed of sound: Sing-around technique in a fixed-path interferometer; for mass density: Vibrating tube method
[2] = refractive index (Na D-line) (dimensionless); conditions: 101.33 kPa, Liquid, Standard Abbe refractometry
[3] = refractive index (Na D-line) (dimensionless); xn = mol fraction of the nth substance listed; conditions: 101.3 kPa, Liquid, Standard Abbe refractometry, x2 = 0
[4] = xn = mol fraction of the nth substance listed; conditions: 101.3 kPa, Liquid, x2 = 0; for speed of sound: Sing-around technique in a fixed-path interferometer; for mass density: Vibrating tube method

Structure (SMILES) | speed of sound ([1]; 293.15 K) [m/s] | mass density ([1]; 293.15 K) [kg/m3] | speed of sound ([1]; 303.15 K) [m/s] | mass density ([1]; 303.15 K) [kg/m3] | speed of sound ([1]; 313.15 K) [m/s] | mass density ([1]; 313.15 K) [kg/m3] | speed of sound ([1]; 323.15 K) [m/s] | mass density ([1]; 323.15 K) [kg/m3] | speed of sound ([1]; 333.15 K) [m/s] | mass density ([1]; 333.15 K) [kg/m3] | speed of sound ([1]; 343.15 K) [m/s] | mass density ([1]; 343.15 K) [kg/m3] | refractive index ([2]; 293.15 K) | refractive index ([2]; 303.15 K) | refractive index ([2]; 313.15 K) | refractive index ([2]; 323.15 K) | refractive index ([2]; 333.15 K) | refractive index ([2]; 343.15 K) | other results
c1ccc2c(c1)CCCC2 [1,2,3,4-tetrahydronaphthalene] | 1489.5 ± 1.3 | 969.52 ± 0.23 | 1450.1 ± 1.2 | 961.59 ± 0.23 | 1411.5 ± 1.2 | 953.66 ± 0.23 | 1373.6 ± 1.2 | 945.72 ± 0.23 | 1336.4 ± 1.2 | 937.77 ± 0.23 | 1299.8 ± 1.2 | 929.8 ± 0.23 | 1.54155 ± 0.00037 | 1.53687 ± 0.00037 | 1.53216 ± 0.00037 | 1.52752 ± 0.00037 | 1.52274 ± 0.00037 | 1.51795 ± 0.00037 | –
CCCCCCCCCCCC [dodecane] | 1297.9 ± 1.2 | 748.92 ± 0.24 | 1259.5 ± 1.2 | 741.66 ± 0.24 | 1221.6 ± 1.2 | 734.38 ± 0.24 | 1184.4 ± 1.2 | 727.07 ± 0.24 | 1147.8 ± 1.2 | 719.73 ± 0.24 | 1111.8 ± 1.2 | 712.34 ± 0.25 | 1.42218 ± 0.00037 | 1.41784 ± 0.00037 | 1.41346 ± 0.00037 | 1.40914 ± 0.00037 | 1.40479 ± 0.00037 | 1.40018 ± 0.00037 | –
CCCCCCCCCCCC [dodecane] + c1ccc2c(c1)CCCC2 | – | – | – | – | – | – | – | – | – | – | – | – | – | – | – | – | – | – | refractive index ([3]; 293.15 K): 1.42218 ± 0.00037; refractive index ([3]; 303.15 K): 1.41784 ± 0.00037; refractive index ([3]; 313.15 K): 1.41346 ± 0.00037; refractive index ([3]; 323.15 K): 1.40914 ± 0.00037; refractive index ([3]; 333.15 K): 1.40479 ± 0.00037; refractive index ([3]; 343.15 K): 1.40018 ± 0.00037; speed of sound ([4]; 293.15 K): 1297.9 ± 1.2 m/s; mass density ([4]; 293.15 K): 748.92 ± 0.24 kg/m3; speed of sound ([4]; 303.15 K): 1259.5 ± 1.2 m/s; mass density ([4]; 303.15 K): 741.66 ± 0.24 kg/m3; speed of sound ([4]; 313.15 K): 1221.6 ± 1.2 m/s; mass density ([4]; 313.15 K): 734.38 ± 0.24 kg/m3; speed of sound ([4]; 323.15 K): 1184.4 ± 1.2 m/s; mass density ([4]; 323.15 K): 727.07 ± 0.24 kg/m3; speed of sound ([4]; 333.15 K): 1147.8 ± 1.2 m/s; mass density ([4]; 333.15 K): 719.73 ± 0.24 kg/m3; speed of sound ([4]; 343.15 K): 1111.8 ± 1.2 m/s; mass density ([4]; 343.15 K): 712.34 ± 0.25 kg/m3
